In patent publication US12662473B2, “Inhibitors for programmed cell necrosis and preparation method therefor and use thereof” (SHANGHAI INSTITUTE OF ORGANIC CHEMISTRY, CHINESE ACADEMY OF …, priority 2019, dated 2026):
Like-named read-outs stand apart in the source and are kept apart here.

Tests used:
FADD−/− Jurkat cells = assay: TNF-induced programmed cell necrosis inhibition, Cell Titer-Glo viability; type: cell-based
Source text: (§1) The adopted biological assay protocol was: the programmed necroptosis effect of compounds on TNF-induced in FADD (Fas-Associated Death Domain) deficient Jurkat cells and L929 cells.
(§2) In order to verify the inhibitory effect of the compounds of the present invention on programmed cell necrosis at the cellular level, cell types closely related to the RIP1 pathway, namely FADD deficient Jurkat cells (human peripheral blood leukemia T cell line) and L929 cells, were selected. Two different stimulation methods were used: tumor necrosis factor (TNFα) used alone, or TNFα used in combination with mitochondria-derived cysteine aspartate activator (SMAC). Cells viability was calculated by detecting chemiluminescence values, and the biological activity of the compound for inhibiting programmed cell necrosis can be obtained.
(§3) Methods: FADD deficient Jurkat cells: FADD deficient Jurkat cells (human peripheral blood leukemia T cell line) were cultured in vitro. After growing to the logarithmic growth phase, the cells were collected, centrifuged at 1000 rpm for 5 min, the supernatant was discarded, and the cell concentration was adjusted to 2.5×10^5/mL. Cells were seeded into 384-well plates, 40 μl per well. 5 μL of Smac (50 nM) diluted in cell culture medium and 5 μL of each compound were added to the corresponding wells. After pretreatment at 37° C. for 1 h, 5 μL of TNFα (50 ng/mL) diluted in cell culture medium was added to each well of the stimulation group, and 5 μL of the culture medium was added to the control group. The plate was cultured in a cell incubator (37° C., 5% CO2) for 14 h, and 15 μl of Cell Titer-Glo solution was added to each well, then incubated for 30 min at room temperature, and intracellular ATP level was measured by detecting luminescence. The unstimulated DMSO control wells were taken as 100% cell viability. L929 cells: The L929 cells (mouse fibroblasts) were cultured in vitro, digested and diluted to 6.25×10^4/ml, and the cells were seeded into 384-well plates, 40 μl per well. The plate was placed in a cell incubator (37° C., 5% CO2) for 12 hours. 5 μL of Smac (500 nM) diluted in cell culture medium and 5 μL of each compound were added to the corresponding wells. After pretreatment at 37° C. for 1 h, 5 μL of TNFα (500 ng/mL) diluted in cell culture medium was added to each well of the stimulation group, and 5 μL of the culture medium was added to the control group. After the plate was cultured for 14 h in a cell incubator (37° C., 5% CO2), 15 μl of Cell Titer-Glo solution was added to each well. The plate was incubated at room temperature for 30 min, and intracellular ATP level was measured by detecting luminescence. The unstimulated DMSO control wells were taken as 100% cell viability. EC50 values of the compounds were calculated using Prism Graphpad statistical software.
FADD deficient Jurkat cells: FADD deficient Jurkat cells (human peripheral blood leukemia T cell line) were cultured in vitro. After growing to the logarithmic growth phase, the cells were collected, centrifuged at 1000 rpm for 5 min, the supernatant was discarded, and the cell concentration was adjusted to 2.5×10^5/mL. Cells were seeded into 384-well plates, 40 μl per well. 5 μL of Smac (50 nM) diluted in cell culture medium and 5 μL of each compound were added to the corresponding wells. After pretreatment at 37° C. for 1 h, 5 μL of TNFα (50 ng/mL) diluted in cell culture medium was added to each well of the stimulation group, and 5 μL of the culture medium was added to the control group. After the plate was cultured in a cell incubator (37° C., 5% CO2) for 14 h, 15 μl of Cell Titer-Glo solution was added to each well. The mixture was incubated for 30 min at room temperature, and intracellular ATP level was measured by detecting luminescence. The unstimulated DMSO control wells were taken as 100% cell viability.

L929 cells = assay: as above; type: cell-based, mouse; settings: read-out: EC50 inhibitory activity on programmed cell necrosis
Source text: as §1, §2, §3
L929 cells: The L929 cells (mouse fibroblasts) were cultured in vitro, digested and diluted to 6.25×10^4/ml, and the cells were seeded into 384-well plates, 40 μl per well. The plate was placed in a cell incubator (37° C., 5% CO2) for 12 hours. 5 μL of Smac (500 nM) diluted in cell culture medium and 5 μL of each compound were added to the corresponding wells. After pretreatment at 37° C. for 1 h, 5 μL of TNFα (500 ng/mL) diluted in cell culture medium was added to each well of the stimulation group, and 5 μL of the culture medium was added to the control group. After the plate was cultured for 14 h in a cell incubator (37° C., 5% CO2), and 15 μl of Cell Titer-Glo solution was added to each well, then incubated at room temperature for 30 min, and intracellular ATP level was measured by detecting luminescence. The unstimulated DMSO control wells were taken as 100% cell viability.

[1] = Homo sapiens, Jurkat, 14 h, TNFa + SM164, read-out: EC50 inhibitory activity on programmed cell necrosis
[2] = Homo sapiens, Jurkat, TNFa, read-out: EC50 inhibitory activity on programmed cell necrosis
[3] = Mus musculus, L929, 14 h, L929 cells (mouse), TNFa + SM164
[4] = Mus musculus, L929, L929 cells (mouse), TNFa
[5] = FADD−/− Jurkat cells (human), TNFa + SM164, read-out: EC50 inhibitory activity on programmed cell necrosis
[6] = FADD−/− Jurkat cells (human), TNFa, read-out: EC50 inhibitory activity on programmed cell necrosis
[7] = L929 cells (mouse), TNFa + SM164

Structure (SMILES) | EC50 (FADD−/− Jurkat cells; [1]) [nM] | EC50 (FADD−/− Jurkat cells; [2]) [nM] | EC50 (L929 cells; [3]) [nM] | EC50 (L929 cells; [4]) [nM] | EC50 (FADD−/− Jurkat cells; [5]) [nM] | EC50 (FADD−/− Jurkat cells; [6]) [nM] | EC50 (L929 cells; [7]) [nM] | EC50 (L929 cells; L929 cells (mouse), TNFa) [nM]
CC(C)c1ccc(C2CCCN2C(=O)C(C)(C)Oc2ccc(Cl)cc2F)cc1 (centres unmarked) [QY-5-1] | > 10000 | > 10000 | > 10000 | > 10000 | – | – | – | –
CC(C)(C(=O)N1CCCC1c1ccc(Cl)cc1)n1nnc2cc(Cl)ccc21 (centres unmarked) [QY-11-11B] | > 10000 | > 10000 | 0.12 | 0.0192 | – | – | – | –
COc1cc(Cl)ccc1OC(C)(C)C(=O)N1N=CCC1c1ccc(C)cc1 (centres unmarked) [QY-10-96] | 633 | 13.4 | 6.31 | 0.151 | – | – | – | –
CC(C)(Oc1ccc(Cl)cc1)C(=O)N1CCC[C@H]1c1nc(Cc2ccccc2)no1 [QY-2-104] | > 10000 | > 10000 | > 10000 | > 10000 | – | – | – | –
CC(C)(Oc1ccc(C#N)cc1F)C(=O)N1CCCC1c1ccc(Cl)cc1 (centres unmarked) [QY-11-45] | 915 | 139 | 108 | 0.7 | – | – | – | –
C#Cc1ccc(OC(C)(C)C(=O)N2CCCC2c2ccc(C)cc2)cc1 (centres unmarked) [QY-14-68] | 180 | 17.2 | 102 | 21 | – | – | – | –
COc1cc(Cl)ccc1OC(C)(C)C(=O)N1CCC[C@H]1c1ccc(Cl)cc1 [QY-10-1] | > 10000 | > 10000 | 3.6 | 0.79 | – | – | – | –
Cc1csc([C@@H]2CCCN2C(=O)C(C)(C)Oc2ccc(Cl)cc2)n1 [QY-2-52] | 2240 | 464 | 2370 | 419 | – | – | – | –
[2H]c1c([2H])c([C@]2([2H])CCCN2C(=O)C(C)(C)Oc2ccc(C#N)cc2OC)c([2H])c([2H])c1C([2H])([2H])[2H] [QY-12-14] | 45.3 | 3.65 | 7.63 | 3.16 | – | – | – | –
Cc1noc([C@@H]2CCCN2C(=O)C(C)(C)Oc2ccc(Cl)cc2C)n1 [QY-3-96] | – | – | – | – | 9220 | 2790 | > 10000 | > 10000
[2H]c1c([2H])c([C@]2([2H])CCCN2C(=O)C(C)(C)Oc2ccc(Cl)cc2F)c([2H])c([2H])c1C([2H])([2H])[2H] [QY-7-7] | 200 | 5 | 24 | 1 | – | – | – | –
COc1cc(Cl)ccc1OC(C)(C)C(=O)N1N=CCC1c1cncc(F)c1 (centres unmarked) [QY-14-40] | > 10000 | > 10000 | > 10000 | > 10000 | – | – | – | –
CC(C)c1noc([C@@H]2CCCN2C(=O)C(C)(C)Oc2ccc(Cl)cc2)n1 [QY-3-17] | > 10000 | 3910 | 52400 | 5380 | – | – | – | –
CC(C)(Oc1ccc(Cl)cc1)C(=O)N1CCCC1c1ccccc1Cl (centres unmarked) [QY-4-32] | 2680 | 712 | 1650 | 520 | – | – | – | –
Cc1noc([C@@H]2CCCN2C(=O)C(C)(C)Oc2c(F)cc(Cl)cc2F)n1 [QY-4-2] | 7730 | 1060 | 16900 | 3950 | – | – | – | –
Cc1ccc(C2CCCN2C(=O)C(C)(C)Oc2ccc(C#CC3CCNCC3)cc2)cc1 (centres unmarked) [QY-15-31] | > 10000 | 818 | > 10000 | 82.4 | – | – | – | –
CN1C(=O)NC(Cc2c[nH]c3c(Cl)cccc23)C1=O (centres unmarked) [Compound 7-Cl-O-Nec-1, reference compound] | – | – | – | – | 337 | 76 | 924 | 155
